Measurements published in ChEMBL document CHEMBL1156829 (Proc Natl Acad Sci U S A, 2008).
Where “and” joins values, the source holds several entries; their conditions need not be identical. Identical values can stand only once.

Legend:
Plasmodium falciparum [1] = assay: NOVARTIS: Inhibition of Plasmodium falciparum 3D7 (drug-susceptible) proliferation in erythrocyte-based infection assay; assay type: functional, organism-based
Huh-7 = assay: NOVARTIS: Cytotoxicity against human hepatocellular carcinoma cell line (Huh7); assay type: toxicity, cell-based; settings: huh-7, read-out: CC50
Plasmodium falciparum [2] = assay: NOVARTIS: Inhibition of Plasmodium falciparum W2 (drug-resistant) proliferation in erythrocyte-based infection assay; assay type: functional, organism-based; settings: read-out: EC50

CC[n+]1c(/C=C/N(C)c2ccccc2)n(-c2ccccc2)c2ccc(-c3nc4ccccc4s3)cc21
EC50 (Plasmodium falciparum [1]): > 929 nM and 460 nM | CC50 (Huh-7): > 10000 nM and 26900 nM | EC50 (Plasmodium falciparum [2]): > 1730 nM and 314 nM

CCN1C(=Cc2sc3ccccc3[n+]2C)C=Cc2cccc(C)c21
EC50 (Plasmodium falciparum [1]): 493 nM | CC50 (Huh-7): > 10000 nM | EC50 (Plasmodium falciparum [2]): 800 nM

CC[n+]1c(C=C2Sc3ccccc3N2CCO)sc2ccccc21
EC50 (Plasmodium falciparum [1]): 1410 nM | CC50 (Huh-7): > 10000 nM | EC50 (Plasmodium falciparum [2]): > 1480 nM

Cc1ccc(N=C2NC(=O)/C(=C\c3ccc(N(C)C)cc3)S2)cc1
EC50 (Plasmodium falciparum [1]): 615 nM and 1470 nM | CC50 (Huh-7): > 100000 nM | EC50 (Plasmodium falciparum [2]): 488 nM and 1250 nM

CCN1/C(=C/c2[se]c3ccccc3[n+]2CC)C=Cc2cc(OC)ccc21
EC50 (Plasmodium falciparum [1]): 1590 nM | CC50 (Huh-7): 12700 nM | EC50 (Plasmodium falciparum [2]): 977 nM

Cn1cc(/C=C/c2cc[n+](C)cc2)c2ccccc21
EC50 (Plasmodium falciparum [1]): 216 nM | CC50 (Huh-7): 7700 nM

CCCC[n+]1c(C=C2C=Cc3ccccc3N2CC)sc2ccccc21
EC50 (Plasmodium falciparum [1]): 81.5 nM | CC50 (Huh-7): 6120 nM | EC50 (Plasmodium falciparum [2]): 228 nM

CCN1C(=Cc2sc3ccccc3[n+]2CC)[Se]c2ccccc21
EC50 (Plasmodium falciparum [1]): 156 nM | EC50 (Plasmodium falciparum [1]; Plasmodium falciparum, 3D7): 230 nM | CC50 (Huh-7): 5340 nM and 11800 nM

CC[n+]1c(C=CN(C)c2ccccc2)oc(-c2ccccc2)c1-c1ccccc1
EC50 (Plasmodium falciparum [1]): 617 nM and 193 nM | CC50 (Huh-7): > 10000 nM and 2740 nM | EC50 (Plasmodium falciparum [2]): 410 nM and 105 nM

CCN1/C(=C/c2cccc[n+]2C)C=Cc2ccc(C)cc21
EC50 (Plasmodium falciparum [1]): 225 nM and 489 nM | CC50 (Huh-7): > 49800 nM | EC50 (Plasmodium falciparum [2]; Plasmodium falciparum, W2): 328 nM | EC50 (Plasmodium falciparum [2]): 448 nM

COc1cc(/C=C2/SC(=Nc3ccccc3)NC2=O)ccc1OCc1ccccc1F
EC50 (Plasmodium falciparum [1]): > 1100 nM and 3670 nM | CC50 (Huh-7): > 100000 nM | EC50 (Plasmodium falciparum [2]): > 12500 nM

CC[n+]1c(C=CN(C)C)sc2ccccc21
EC50 (Plasmodium falciparum [1]): 443 nM | CC50 (Huh-7): > 10000 nM | EC50 (Plasmodium falciparum [2]): 462 nM

CC[n+]1c(/C=C2\C=Cc3cc(C)ccc3N2C)ccc2cc(C)ccc21
EC50 (Plasmodium falciparum [1]): > 1150 nM and 225 nM | CC50 (Huh-7): > 10000 nM and 32100 nM | EC50 (Plasmodium falciparum [2]; Plasmodium falciparum, W2): > 1250 nM | EC50 (Plasmodium falciparum [2]): 961 nM

CCOC(=O)c1ccc(-n2c(C)cc(/C=C3\SC(=Nc4ccc(Cl)cc4)NC3=O)c2C)cc1
EC50 (Plasmodium falciparum [1]): 844 nM and 3370 nM | CC50 (Huh-7): > 100000 nM | EC50 (Plasmodium falciparum [2]; Plasmodium falciparum, W2): 1700 nM | EC50 (Plasmodium falciparum [2]): 1420 nM

Cc1ccc2c(c1)N(C)/C(=C/c1cccc[n+]1C)S2
EC50 (Plasmodium falciparum [1]): 825 nM | CC50 (Huh-7): > 10000 nM and 22700 nM

CC[n+]1c(/C=C2\Sc3cc(C)ccc3N2CCO)ccc2ccccc21
EC50 (Plasmodium falciparum [1]): 1200 nM and 195 nM | CC50 (Huh-7): > 10000 nM and 21300 nM | EC50 (Plasmodium falciparum [2]): 861 nM and 228 nM

O=C(Nc1ccc(-c2nc3cc(NC(=O)c4cccc([N+](=O)[O-])c4)ccc3[nH]2)cc1)c1cccc([N+](=O)[O-])c1
EC50 (Plasmodium falciparum [1]): 324 nM | EC50 (Plasmodium falciparum [1]; Plasmodium falciparum, 3D7): 489 nM | CC50 (Huh-7): 1670 nM and 667 nM | EC50 (Plasmodium falciparum [2]): 635 nM and 246 nM

COc1ccc2c(c1)N(C)/C(=C/c1cccc[n+]1C)S2
EC50 (Plasmodium falciparum [1]): 941 nM and 219 nM | CC50 (Huh-7): > 100000 nM | EC50 (Plasmodium falciparum [2]): > 787 nM and 302 nM

O=C1NN(c2ccccc2)C(=O)/C1=C1/C(=O)N(Cc2cccc3ccccc23)c2ccccc21
EC50 (Plasmodium falciparum [1]): > 541 nM and 5050 nM | CC50 (Huh-7): > 100000 nM | EC50 (Plasmodium falciparum [2]): > 1250 nM and 3260 nM

CCOc1ccc(Br)cc1/C=C1\SC(=Nc2ccccc2CC)N(c2ccccc2CC)C1=O
EC50 (Plasmodium falciparum [1]): 8330 nM and > 835 nM | CC50 (Huh-7): > 100000 nM | EC50 (Plasmodium falciparum [2]): > 1250 nM and 4860 nM

Cc1ccc(/C=C2/SC(=Nc3ccccc3)NC2=O)c(C)c1
EC50 (Plasmodium falciparum [1]): 468 nM and 232 nM | CC50 (Huh-7): > 100000 nM | EC50 (Plasmodium falciparum [2]; Plasmodium falciparum, W2): 455 nM | EC50 (Plasmodium falciparum [2]): 351 nM

CCCCN1C(=Cc2cccc[n+]2C)Sc2cc(NC(C)=O)ccc21
EC50 (Plasmodium falciparum [1]): 2110 nM | CC50 (Huh-7): > 100000 nM | EC50 (Plasmodium falciparum [2]): 3670 nM

CCCCCC[n+]1ccccc1C=Cc1ccc(N(C)C)cc1
EC50 (Plasmodium falciparum [1]): 96.1 nM | CC50 (Huh-7): 2410 nM | EC50 (Plasmodium falciparum [2]): 211 nM

CCN1/C(=C/c2ccc3cc(C)ccc3[n+]2C)Sc2ccc3ccsc3c21
EC50 (Plasmodium falciparum [1]): 951 nM and 371 nM | CC50 (Huh-7): > 10000 nM and 55900 nM | EC50 (Plasmodium falciparum [2]; Plasmodium falciparum, W2): > 1250 nM | EC50 (Plasmodium falciparum [2]): 843 nM

CC[n+]1c(/C=C2\Sc3cc(NC(C)=O)ccc3N2C)ccc2ccccc21
EC50 (Plasmodium falciparum [1]): 373 nM and 72.2 nM | CC50 (Huh-7): > 100000 nM

CCN1/C(=C/C=C/C2=[N+](C)c3ccc(C)cc3C2(C)C)C=Cc2ccccc21
EC50 (Plasmodium falciparum [1]): 861 nM and 158 nM | CC50 (Huh-7): > 10000 nM and 4990 nM | EC50 (Plasmodium falciparum [2]): 860 nM and 184 nM

CN(C)c1ccc(C=Cc2cccc[n+]2C)cc1
EC50 (Plasmodium falciparum [1]): 314 nM | EC50 (Plasmodium falciparum [1]; Plasmodium falciparum, 3D7): 248 nM | CC50 (Huh-7): 3030 nM and > 10000 nM

CCOc1ccc(/C=C2/SC(=Nc3ccccc3)NC2=O)cc1OC
EC50 (Plasmodium falciparum [1]): 662 nM and 1530 nM | CC50 (Huh-7): > 100000 nM
